As usually defined, the EC50 is the concentration at which the effect is half-maximal.

The first assay relates to SARS-CoV-2 strain USA-WA1/2020. Kind of assay: microbe, parasite or virus in culture. It is filed as cell-based. The following applies: Severe acute respiratory syndrome coronavirus 2, HeLa-ACE2, 24 h, HeLa-ACE2 cells, SARS-CoV-2 infection, 24 h; class symbols; read-out: EC50, uM (Hela).
For `CC(C)C[C@H](NC(=O)[C@H](O)CF)C(=O)N[C@@H](C[C@@H]1CCNC1=O)C(=O)COC(F)(F)F` [Compound 396, (S)-2-((S)-3-fluoro-2-hydroxypropanamido)-4-methyl-N-((S)-3-oxo-1-((S)-2-oxopyrrolidin-3-yl)-4-(trifluoromethoxy)butan-2-yl)pentanamide], the concentration for a half-maximal effect (EC50) fell in the range of 0.2 to 0.5 µM.
The same measure, in the same setting: to `O=C1NCC[C@H]1C[C@H](NC(=O)[C@@H]1CC2(CC2)CN1C(=O)[C@H](O)CF)C(=O)COC(F)(F)F` [Compound 397, (S)-5-((S)-3-fluoro-2-hydroxypropanoyl)-N-((S)-3-oxo-1-((S)-2-oxopyrrolidin-3-yl)-4-(trifluoromethoxy)butan-2-yl)-5-azaspiro[2.4]heptane-6-carboxamide] belongs 0.05 to 0.2 µM.
For the compound `O=C1NCC[C@H]1C[C@H](NC(=O)[C@@H]1CC2(CC2)CN1C(=O)[C@H](O)Cc1ccccc1)C(=O)COC(F)(F)F` [Compound 398, (S)-5-((R)-2-hydroxy-3-phenylpropanoyl)-N-((S)-3-oxo-1-((S)-2-oxopyrrolidin-3-yl)-4-(trifluoromethoxy)butan-2-yl)-5-azaspiro[2.4]heptane-6-carboxamide], the EC50 was in the range of 0.05 to 0.2 µM.
On the same count and under the same terms, then `O=C1NCC[C@H]1C[C@H](NC(=O)[C@@H]1CC2(CC2)CN1C(=O)C(O)c1cc(F)c(F)c(F)c1)C(=O)COC(F)(F)F` (stereo partly drawn) [Compound 399, (6S)-5-(2-hydroxy-2-(3,4,5-trifluorophenyl)acetyl)-N-((S)-3-oxo-1-((S)-2-oxopyrrolidin-3-yl)-4-(trifluoromethoxy)butan-2-yl)-5-azaspiro[2.4]heptane-6-carboxamide], with 0.05 to 0.2 µM; and `O=C1NCC[C@H]1C[C@H](NC(=O)[C@@H]1CC2(CC2)CN1C(=O)C(O)c1ccc(F)c(F)c1)C(=O)COC(F)(F)F` (stereo partly drawn) [Compound 400, (6S)-5-(2-(3,4-difluorophenyl)-2-hydroxyacetyl)-N-((S)-3-oxo-1-((S)-2-oxopyrrolidin-3-yl)-4-(trifluoromethoxy)butan-2-yl)-5-azaspiro[2.4]heptane-6-carboxamide], with 0.05 to 0.2 µM; and `CC1(C)[C@@H]2[C@@H](C(=O)N[C@@H](C[C@@H]3CCNC3=O)C(=O)COC(F)(F)F)N(C(=O)C(O)c3ccc(F)c(F)c3)C[C@@H]21` (stereo partly drawn) [Compound 401, (1R,2S,5S)-3-(2-(3,4-difluorophenyl)-2-hydroxyacetyl)-6,6-dimethyl-N-((S)-3-oxo-1-((S)-2-oxopyrrolidin-3-yl)-4-(trifluoromethoxy)butan-2-yl)-3-azabicyclo[3.1.0]hexane-2-carboxamide], with below 0.05 µM.

Still in this assay, the particulars now being: Severe acute respiratory syndrome coronavirus 2, HeLa-ACE2, 24 h, HeLa-ACE2 cells, SARS-CoV-2 infection, 24 h; read-out: EC50, uM (Hela).
As to `O=C1NCC[C@H]1C[C@H](NC(=O)[C@@H]1CC2(CC2)CN1C(=O)C(O)c1ccc(F)cc1F)C(=O)COC(F)(F)F` (stereo partly drawn) [Compound 402, (6S)-5-(2-(2,4-difluorophenyl)-2-hydroxyacetyl)-N-((S)-3-oxo-1-((S)-2-oxopyrrolidin-3-yl)-4-(trifluoromethoxy)butan-2-yl)-5-azaspiro[2.4]heptane-6-carboxamide], the concentration for a half-maximal effect (EC50) was below 0.05 µM.
For the compound `O=C1NCC[C@H]1C[C@H](NC(=O)[C@@H]1CC2(CC2)CN1C(=O)[C@H](O)c1ccc(F)cc1)C(=O)COC(F)(F)F` [Compound 403, (S)-5-((R)-2-(4-fluorophenyl)-2-hydroxyacetyl)-N-((S)-3-oxo-1-((S)-2-oxopyrrolidin-3-yl)-4-(trifluoromethoxy)butan-2-yl)-5-azaspiro[2.4]heptane-6-carboxamide], the EC50 was 0.05 to 0.2 µM.
Still for that read-out and setting: then `O=C1NCC[C@H]1C[C@H](NC(=O)[C@@H]1[C@H]2CCC[C@H]2CN1C(=O)[C@H](O)c1ccc(F)cc1)C(=O)COC(F)(F)F` [Compound 404, (1S,3aR,6aS)-2-((R)-2-(4-fluorophenyl)-2-hydroxyacetyl)-N-((S)-3-oxo-1-((S)-2-oxopyrrolidin-3-yl)-4-(trifluoromethoxy)butan-2-yl)octahydrocyclo-penta[c]pyrrole-1-carboxamide], with below 0.05 µM.
As for `O=C1NCC[C@H]1C[C@H](NC(=O)[C@@H]1CC2(CC2)CN1C(=O)C(O)c1cccc(F)c1)C(=O)COC(F)(F)F` (stereo partly drawn) [Compound 405, (6S)-5-(2-(3-fluorophenyl)-2-hydroxyacetyl)-N-((S)-3-oxo-1-((S)-2-oxopyrrolidin-3-yl)-4-(trifluoromethoxy)butan-2-yl)-5-azaspiro[2.4]heptane-6-carboxamide], the EC50 is 0.05 to 0.2 µM.
In the case of `O=C1NCC[C@H]1C[C@H](NC(=O)[C@@H]1CC2(CC2)CN1C(=O)C(O)c1ccccc1C(F)(F)F)C(=O)COC(F)(F)F` (stereo partly drawn) [Compound 406, (6S)-5-(2-hydroxy-2-(2-(trifluoromethyl)-phenyl)acetyl)-N-((S)-3-oxo-1-((S)-2-oxopyrrolidin-3-yl)-4-(trifluoromethoxy)butan-2-yl)-5-azaspiro[2.4]heptane-6-carboxamide], the EC50 is 0.05 to 0.2 µM.
Same read-out and setting: to `CC1(C)[C@@H]2[C@@H](C(=O)N[C@@H](C[C@@H]3CCNC3=O)C(=O)COC(F)(F)F)N(C(=O)[C@H](O)c3ccccc3F)C[C@@H]21` [Compound 407, (1R,2S,5S)-3-((R)-2-(2-fluorophenyl)-2-hydroxyacetyl)-6,6-dimethyl-N-((S)-3-oxo-1-((S)-2-oxopyrrolidin-3-yl)-4-(trifluoromethoxy)butan-2-yl)-3-azabicyclo[3.1.0]hexane-2-carboxamide] belongs below 0.05 µM.
Still for that read-out and setting: to `CC(C)C[C@H](NC(=O)[C@H](O)c1ccccc1F)C(=O)N[C@@H](C[C@@H]1CCNC1=O)C(=O)COC(F)(F)F` [Compound 408, (S)-2-((R)-2-(2-fluorophenyl)-2-hydroxyacetamido)-4-methyl-N-((S)-3-oxo-1-((S)-2-oxopyrrolidin-3-yl)-4-(trifluoromethoxy)butan-2-yl)pentanamide] belongs below 0.05 µM.
On to `O=C1NCC[C@H]1C[C@H](NC(=O)[C@@H]1[C@H]2CCC[C@H]2CN1C(=O)[C@H](O)c1ccccc1F)C(=O)COC(F)(F)F` [Compound 409, (1S,3aR,6aS)-2-((R)-2-(2-fluorophenyl)-2-hydroxyacetyl)-N-((S)-3-oxo-1-((S)-2-oxopyrrolidin-3-yl)-4-(trifluoromethoxy)butan-2-yl)octahydrocyclo-penta[c]pyrrole-1-carboxamide], for which the EC50 is below 0.05 µM.
For `O=C1NCC[C@H]1C[C@H](NC(=O)[C@@H]1CC2(CC2)CN1C(=O)[C@H](O)c1ccccc1F)C(=O)COC(F)(F)F` [Compound 410, (S)-5-((R)-2-(2-fluorophenyl)-2-hydroxyacetyl)-N-((S)-3-oxo-1-((S)-2-oxopyrrolidin-3-yl)-4-(trifluoromethoxy)butan-2-yl)-5-azaspiro[2.4]heptane-6-carboxamide], the EC50 was 0.05 to 0.2 µM.
Regarding `CC1(C)[C@@H]2[C@@H](C(=O)N[C@@H](C[C@@H]3CCNC3=O)C(=O)COC(F)(F)F)N(C(=O)[C@@H](O)c3ccccc3F)C[C@@H]21` [Compound 411, (1R,2S,5S)-3-((S)-2-(2-fluorophenyl)-2-hydroxyacetyl)-6,6-dimethyl-N-((S)-3-oxo-1-((S)-2-oxopyrrolidin-3-yl)-4-(trifluoromethoxy)butan-2-yl)-3-azabicyclo-[3.1.0]hexane-2-carboxamide], the EC50 was below 0.05 µM.
Take `O=C1NCC[C@H]1C[C@H](NC(=O)[C@@H]1CC2(CC2)CN1C(=O)[C@H](O)c1ccccc1)C(=O)COC(F)(F)F` [Compound 412, (S)-5-((R)-2-hydroxy-2-phenylacetyl)-N-((S)-3-oxo-1-((S)-2-oxopyrrolidin-3-yl)-4-(trifluoromethoxy)butan-2-yl)-5-azaspiro[2.4]-heptane-6-carboxamide]: the EC50 is 0.05 to 0.2 µM.
Regarding `CC1(C)[C@@H]2[C@@H](C(=O)N[C@@H](C[C@@H]3CCNC3=O)C(=O)COC(F)(F)F)N(C(=O)[C@H](O)c3ccccc3)C[C@@H]21` [Compound 413, (1R,2S,5S)-3-((R)-2-hydroxy-2-phenylacetyl)-6,6-dimethyl-N-((S)-3-oxo-1-((S)-2-oxopyrrolidin-3-yl)-4-(trifluoromethoxy)butan-2-yl)-3-azabicyclo[3.1.0]-hexane-2-carboxamide], the EC50 was below 0.05 µM.
`O=C1NCC[C@H]1C[C@H](NC(=O)[C@@H]1[C@H]2CCC[C@H]2CN1C(=O)[C@H](O)c1ccccc1)C(=O)COC(F)(F)F` [Compound 414, (1S,3aR,6aS)-2-((R)-2-hydroxy-2-phenylacetyl)-N-((S)-3-oxo-1-((S)-2-oxopyrrolidin-3-yl)-4-(trifluoromethoxy)butan-2-yl)octahydrocyclo-penta[c]pyrrole-1-carboxamide]: the EC50 was below 0.05 µM.
As to `O=C1NCC[C@H]1C[C@H](NC(=O)[C@@H]1CC2(CC2)CN1C(=O)[C@@H](O)c1ccccc1)C(=O)COC(F)(F)F` [Compound 415, (S)-5-((S)-2-hydroxy-2-phenylacetyl)-N-((S)-3-oxo-1-((S)-2-oxopyrrolidin-3-yl)-4-(trifluoromethoxy)butan-2-yl)-5-azaspiro[2.4]heptane-6-carboxamide], the EC50 lay within 0.05 to 0.2 µM.
On to `CC1(C)[C@@H]2[C@@H](C(=O)N[C@@H](C[C@@H]3CCNC3=O)C(=O)COC(F)(F)F)N(C(=O)[C@@H](O)c3ccccc3)C[C@@H]21` [Compound 416, (1R,2S,5S)-3-((S)-2-hydroxy-2-phenylacetyl)-6,6-dimethyl-N—((S)-3-oxo-1-((S)-2-oxopyrrolidin-3-yl)-4-(trifluoromethoxy)butan-2-yl)-3-azabicyclo[3.1.0]hexane-2-carboxamide], for which the EC50 is below 0.05 µM.
The same measure, in the same setting: then `O=C1NCC[C@H]1C[C@H](NC(=O)[C@@H]1[C@H]2CCC[C@H]2CN1C(=O)[C@@H](O)c1ccccc1)C(=O)COC(F)(F)F` [Compound 417, (1S,3aR,6aS)-2-((S)-2-hydroxy-2-phenylacetyl)-N-((S)-3-oxo-1-((S)-2-oxopyrrolidin-3-yl)-4-(trifluoromethoxy)butan-2-yl)octahydrocyclo-penta[c]pyrrole-1-carboxamide], with below 0.05 µM.

For the origin of these results see US11708348B2, “Protease inhibitors for treatment of coronavirus infections” (The Scripps Research Institute, priority 2021, dated 2023).
